# Data from patent US20050238734A1, “Detection of nitrosylated proteins” (University of Vermont and State Agricultural College, priority 2004, published 2005).
# Tests used:
# [1] = tested on: Mouse lung epithelial (C10) cells; assay: NO/S-nitrosothiol content of cell lysates by chemiluminescence; type: cell-based; conditions: 1 mM GSNO, about one hour
# Protocol: A line of spontaneously transformed mouse lung alveolar type II epithelial cells (C10) was used in some experiments, as described below. […] In experiments involving microscopic analysis, the cells were grown on glass cover slips. At about one hour prior to exposure to a test agent, the medium was switched to phenol red free DMEM/F12 containing 0.5% FBS. Some cells were exposed to S-nitroso-glutathione (GSNO) or S-nitroso-N-acetyl penicillamine (SNAP) for about 1 hour, in the presence of an equimolar concentration of freshly prepared L-cysteine. To monitor S-nitrosylation in response to NOS2 activation, the cells were treated with 10 ng/ml TNF alpha (TNFα) and 100 U/ml interferon gamma (IFNγ), for about 24 hours. […] S-nitrosothiols were detected in cell lysates or immunoprecipitated protein by chemiluminescence, using a nitric oxide analyzer (Ionics, Boulder, Colo.). […] In order to eliminate the contribution of nitrites to the observed photoelectric signal, the cell lysates were incubated with a nitrite quencher, sulfanilamide, and assessed the sulfanilamide resistant NO signal by chemiluminescence. Under these experimental conditions, employing 12 micrograms of protein, S-nitrosthiol was not detected in the sham controls (<5 pmol), but a sulfamilamide-resistant NO signal was detected in lysates from cells treated with GSNO.
# [2] = tested on: C10 cells; assay: In situ detection of S-nitrosylated proteins in intact cells (biotin derivatization, streptavidin-FITC, confocal microscopy); type: cell-based, mouse; conditions: 1 mM, 1 hour
# Protocol: A line of spontaneously transformed mouse lung alveolar type II epithelial cells (C10) was used in some experiments, as described below. C10 cells were cultured in CMRL1066 medium containing 10% fetal bovine serum (FBS, GIBCO). In experiments involving microscopic analysis, the cells were grown on glass cover slips. At about one hour prior to exposure to a test agent, the medium was switched to phenol red free DMEM/F12 containing 0.5% FBS. Some cells were exposed to S-nitroso-glutathione (GSNO) or S-nitroso-N-acetyl penicillamine (SNAP) for about 1 hour, in the presence of an equimolar concentration of freshly prepared L-cysteine. To monitor S-nitrosylation in response to NOS2 activation, the cells were treated with 10 ng/ml TNF alpha (TNFα) and 100 U/ml interferon gamma (IFNγ), for about 24 hours. Incubation with L-N-monomethyl arginine (L-NMMA) for about 16 hours was used to inhibit endogenous NO production and D-NMMA (D-N-monomethyl arginine) was used as a control. Nuclear export was blocked by leptomycin B (5 ng/ml, exposure for about 12 hours). All experiments were performed in duplicate and were repeated at least three times.
# To evaluate the localization of S-nitrosylated proteins in intact cells, the biotin derivatization method described above was used in combination with fluorophore labeling and visualized using confocal microscopy. Cells grown on cover slips were rinsed with PBS containing 0.1 mM EDTA and 0.01 mM neocuproine, and fixed in 4% PFA (paraformaldehyde) for 20 minutes at RT. The cells were permeabilized, and protein SH groups were blocked using HEN buffer containing 2.5% SDS, 0.5% CHAPS, and 20 mM MMTS (methylmethanethiosulfonate) for 20 min at 55° C. with constant shaking. After removal of MMTS, the cells were incubated with 1 mM sodium ascorbate and 0.4 mM biotin-HPDP (N-[6-(biotinamido)hexyl]-3′-(2′-pyridyldithio)propionamide) for about an hour at RT, and the cover slips were then incubated overnight with streptavidin-FITC at 4° C. Blocking was performed using 20 mM NEM for 30 minutes at 4° C., followed by incubation with 0.05 mM MPB and 1 mM sodium ascorbate for 1 hour at RT. The nuclei were stained with 10 microgram/ml PI (propidium iodide) for 30 minutes at RT. The cells were analyzed by confocal microscopy (magnification 40×) using an Olympus BX50 microscope coupled to a Bio-Rad (Hercules Calif.) MRC 1024 confocal scanning laser microscope system. Control experiments were also performed in which blocking of SH groups was omitted, or in which 100 micromolar HgCl2 was added prior to blocking of SH groups with MMTS or NEM. To assess the contribution of endogenous biotinylated proteins, the biotin-label was omitted in some control cover slips. All manipulations were performed in the dark. […]
# [3] = tested on: lungs of Balb/c mice; assay: Detection of S-nitrosylated proteins in frozen lung sections after intratracheal administration; type: in vivo, mouse; conditions: 50 microliters of 10 mM intratracheally, about 2 hours, versus PBS
# [4] = target: T1, RanGTPase (Mus musculus, UniProt P62827); assay: SNO content of immunoprecipitated RanGTPase by chemiluminescence; type: cell-based; conditions: 1 mM, about 1 hour
# T1 construct: Ran was immunoprecipitated from equivalent amounts of total cell lysates; endogenous in cells; host or cells: C10 mouse lung alveolar type II epithelial cells
# Protocol: S-nitrosothiols were detected in cell lysates or immunoprecipitated protein by chemiluminescence, using a nitric oxide analyzer (Ionics, Boulder, Colo.). Cell lysates were incubated for about 15 minutes in the presence or absence of sulfanilamide (0.5%).
# Ran was immunoprecipitated from equivalent amounts of total cell lysates, using a Ran goat polyclonal IgG (Santa Cruz) and protein G-agarose beads. The immunoprecipitates were washed three times with HEN buffer (25 mM HEPES, pH 7.7, 0.1 mM EDTA, 0.01 mM neocuproine) and the immunocomplexes were injected into the purge vessel for NO analysis.
# Chemiluminescence was first performed to detect the S-nitrosylation of immunoprecipitated RanGTPase. […] In these experiments, the cells were treated with 1 mM GSNO for about 1 hour, washed, and Ran was immunoprecipitated form the total lysate using a Ran-specific antibody and protein G agarose beads. The immunocomplexes were washed three times and directly injected into the purge vessel using techniques similar to those described in Example 1. As a control, pre-immune IgG was used instead of Ran antibody. Western blot analysis confirmed the presence of RanGTPase in the immunocomplexes (FIG. 7B).
# [5] = target: T1, RanGTPase; assay: Biotin derivatization of RanGTPase, immunoprecipitation, Western blot with streptavidin-HRP; type: cell-based; conditions: after treatment of cells, versus basal
# Protocol: Biotin labeling of S-nitrosylated proteins in cell lysates proceeded as follows. At selected time points, cells were rinsed with PBS containing 0.1 mM EDTA and 0.01 mM neocuproine and lysed in HEN buffer containing 0.1% SDS, 0.5% CHAPS, and 20 mM NEM (N-ethylmaleimide) by rocking for 30 minutes at 4° C. The lysates were centrifuged at 14,000 g at 4° C. for about 10 minutes, and the excess NEM used to block sulfhydryl groups (SH) was removed by protein precipitation with acetone. The pellets were resuspended in HEN buffer containing 1% SDS (HENS), and the S-nitrosothiols were reduced and biotinylated by the simultaneous addition of 10 mM sodium ascorbate and 0.05 mM of the sulfhydryl-specific biotinylating agent, MPB (N-(3-maleimidylpropionyl) biocytin, Molecular Probes), for 1 hour at room temperature (RT, about 25° C.). […] Biotinylation of Ran was detected using streptavidin-HRP. […]
# To confirm that RanGTPase itself was S-nitrosylated, a biotin derivatization approach was used, including immunoprecipitating RanGTPase and determining biotinylated RanGTPase by Western blotting using streptavidin-HRP. […] Ran was immunoprecipitated from total cell lysates, and biotinylated RanGTPase was determined by Western blotting and by peroxidase-conjugated streptavidin (FIG. 7C, upper panel). […] In the lower panel of FIG. 7C, as a loading control, Ran was detected in whole cell lysates by Western blotting.
compound,measurement,setting,value
"N[C@@H](CCC(=O)N[C@@H](CSN=O)C(=O)NCC(=O)O)C(=O)O [GSNO, S-nitroso-glutathione]",sulfanilamide-resistant NO signal (S-nitrosothiol) in lysates,[1]; 12 micrograms of protein,detected
same,total NO content in lysates,[1]; versus non-treated cells,increased
same,biotinylation (S-nitrosylated proteins) in intact cells,[2],enhanced
same,biotin reactivity (S-nitrosylated proteins) in lungs,[3],markedly increased
same,SNO content of immunoprecipitated RanGTPase,[4],increase
same,biotinylation of RanGTPase,[5],enhanced
